# Assay results published in patent EP3294317B1, “ENHANCED ANTIBIOTIC COMPOSITION” (Universitat Autònoma de Barcelona, priority 2015, dated 2016).
# What was measured:
# S. maltophilia 53149 = test: Colistin broth microdilution MIC with potentiator compounds, resistant clinical isolates (Example 3); format: cell-based, Stenotrophomonas maltophilia; details: colistin without potentiator
# Protocol: (§1) The potentiator effect of the compound of the invention and other compounds disclosed herein was tested using colistin sulfate as antibiotic and in combination with the enhancer compounds in front of resistant clinical isolates.
# (§2) Tests were performed to determine the potentiator effect of the compound of the invention and other compounds disclosed herein with multidrug-resistant S. maltophilia and A. baumannii clinical strains as shown in Table 5: TABLE 5
# (§3) For this experiment the potentiator compound was added to a colistin broth microdilution assay at a final concentration of 0.1mM. MICs were determined as described in the Example 1.
# (§4) Colistin minimal inhibitory concentration (MIC), expressed in µg/mL, and the fold increase in bacterial susceptibility to colistin when combined with the potentiator compound (expressed as MIC in the presence of 1.0% DMSO / MIC in the presence of 0.1 mM of each potentiator compound and 1.0% DMSO) are shown in Table 6: […]
# S. maltophilia D457 = test: as above; format: cell-based, Stenotrophomonas maltophilia; details: colistin without potentiator
# Protocol: as §1, §2, §3, §4
# S. maltophilia 257 = test: as above; format: cell-based, Stenotrophomonas maltophilia; details: colistin without potentiator
# Protocol: as §1, §2, §3, §4
# S. maltophilia 197 = test: as above; format: cell-based, Stenotrophomonas maltophilia; details: colistin without potentiator
# Protocol: as §1, §2, §3, §4
# S. maltophilia M30 = test: as above; format: cell-based, Stenotrophomonas maltophilia; details: colistin without potentiator
# Protocol: as §1, §2, §3, §4
# [1] = system: Acinetobacter baumannii ATCC 15308; test: Colistin broth microdilution MIC with potentiator compounds (Example 1); format: cell-based; details: A. baumannii ATCC 15308; colistin without potentiator
# [2] = system: Escherichia coli ATCC 9637; test: as above; format: cell-based; details: E. coli ATCC 9637; colistin without potentiator
# [3] = system: Pseudomonas aeruginosa ATCC 27853; test: as above; format: cell-based; details: P. aeruginosa ATCC 27853; colistin without potentiator
# S. maltophilia K279a = test: Colistin broth microdilution MIC with compound of formula I prepared in methanol or DMSO (Example 6); format: cell-based, Stenotrophomonas maltophilia; details: microdilution test with MHB, colistin without potentiator
# Protocol: (§5) The potentiator effect of the compound of the invention in a new formulation was tested by using colistin sulphate as antibiotic in combination with the enhancer compound of formula I in front of resistant clinical isolates. […]
# (§6) Tests were performed to determine the potentiator effect of the compound of the invention with two colistin resistant S. maltophilia strains as shown in Table 9. S. maltophilia K279a is a reference clinical strain. The origin of clinical strain OC323 together with K279a has been described previously (Huedo et al., Two Different rpf Clusters Distributed among a Population of Stenotrophomonas maltophilia Clinical Strains Display Differential Diffusible Signal Factor Production and Virulence Regulation, J. Bacteriol., 2014, 196, 2431-2442).
# (§7) Selected compound of formula I was first dissolved in 100% of Methanol (HPLC Gradient Grade CHROMASOLV. Sigma, 34885-1L-R) to 10 mM. The compound was fairly soluble in methanol up to 10 mM and required vigorous vortex.
# (§8) […] MICs were determined as described in the Example 1.
# (§9) Strains colistin minimal inhibitory concentration (MIC), expressed in µg/mL, and the fold increase in bacterial susceptibility to colistin when combined with the potentiator compound previously dissolved in methanol ([…]) are shown in Table 9: TABLE 9
# S. maltophilia OC323 = test: as above; format: cell-based, Stenotrophomonas maltophilia; details: microdilution test with MHB, colistin without potentiator
# Protocol: as §5, §6, §7, §8, §9
# [4] = system: Stenotrophomonas maltophilia ATCC 13637; test: Colistin broth microdilution MIC with potentiator compounds (Example 1); format: cell-based; details: S. maltophilia ATCC 13637; colistin without potentiator
# [5] = system: Enterobacter aerogenes ATCC 13048; test: as above; format: cell-based; details: E. aerogenes ATCC 13048; colistin without potentiator
# [6] = system: Salmonella enterica subsp. enterica ATCC 14028; test: as above; format: cell-based; details: S. enterica ATCC 14028; colistin without potentiator
# [7] = system: Pseudomonas aeruginosa PAO1; test: as above; format: cell-based; details: P. aeruginosa PAO1; colistin without potentiator
# [8] = system: Escherichia coli ATCC 25922; test: as above; format: cell-based; details: E. coli ATCC 25922; colistin without potentiator
# A. baumannii 6963 = test: Colistin broth microdilution MIC with potentiator compounds, resistant clinical isolates (Example 3); format: cell-based, Acinetobacter baumannii; details: colistin without potentiator
# Protocol: as §1, §2, §3, §4
# A. baumannii 6799 = test: as above; format: cell-based, Acinetobacter baumannii; details: colistin without potentiator
# Protocol: as §1, §2, §3, §4
substance,measurement,setting,value
colistin [reference compound],Colistin MIC,S. maltophilia 53149,32 µg/mL
same,Colistin MIC,S. maltophilia D457,32 µg/mL
same,Colistin MIC,S. maltophilia 257,64 µg/mL
same,Colistin MIC,S. maltophilia 197,32 µg/mL
same,Colistin MIC,S. maltophilia M30,32 µg/mL
same,Colistin MIC,[1],0.5 µg/mL
same,Colistin MIC,[2],0.5 µg/mL
same,Colistin MIC,[3],0.5 µg/mL
same,MIC to colistin,S. maltophilia K279a,S. maltophilia K279a (16 µg/mL)
same,MIC to colistin,S. maltophilia OC323,S. maltophilia OC323 (32 µg/mL)
same,Colistin MIC,[4],8 µg/mL
same,Colistin MIC,[5],1 µg/mL
same,Colistin MIC,[6],2 µg/mL
same,Colistin MIC,[7],1 µg/mL
same,Colistin MIC,[8],1 µg/mL
same,Colistin MIC,A. baumannii 6963,0.125 µg/mL
same,Colistin MIC,A. baumannii 6799,0.125 µg/mL
